{"source": "patent US10098881B2", "about": "“Compounds” (AUTIFONY THERAPEUTICS LIMITED, priority 2011, dated 2018)", "key": {"[1]": {"tested_on": "Male CD-1 mice", "assay": "Biological Example 2: psychostimulant (amphetamine)-induced hyperactivity in mice", "conditions": "for Locomotor activity (beam crosses): over 60 minutes, mean ± sem"}, "[2]": {"tested_on": "\"fast-firing\" interneurons in the somatosensory cortex", "assay": "Recordings from identified fast-firing interneurons, trains of high frequency depolarising current pulses", "type": "cell-based, mouse", "conditions": "1 microM, n=6; trains of depolarising pulses at 100, 200, 300 Hz; p<0.05 vs no drug; listed as Reference Example 9", "from_the_text": "FIG. 2. Recordings made from identified “fast-firing” interneurons in the somatosensory cortex of the mouse.\nKv3.1 and Kv3.2 channels must activate and deactivate very rapidly in order to allow neurons to fire actions potentials at high frequency (Rudy and McBain, 2001, Trends in Neurosciences 24, 517-526). Slowing of activation is likely to delay the onset of action potential repolarisation; slowing of deactivation could lead to hyperpolarising currents that reduce the excitability of the neuron and delay the time before the neuron can fire a further action potential. Together these slowing effects on channel activation and deactivation are likely to lead to a reduction rather than a facilitation of the neurons ability to fire at high frequencies. Thus compounds that have this slowing effect on the Kv3.1 and/or Kv3.2 channels may slow neuronal firing.\nThe neurons are induced to fire at high frequencies by trains of high frequency depolarising current pulses at 100, 200, and 300 Hz. The ability of the neuron to fire an action potential on each pulse is determined. […] In the absence of drug (closed circles, n=9), the neurons maintained a spike probability of 1 up to 300 Hz."}, "[3]": {"biological_target": "T1, human Kv3.2 channels (hKv3.2) (Homo sapiens, UniProt Q96PR1)", "T1 construct": "expressed in transfected cells", "T1 sequence (Q96PR1 1-638)": "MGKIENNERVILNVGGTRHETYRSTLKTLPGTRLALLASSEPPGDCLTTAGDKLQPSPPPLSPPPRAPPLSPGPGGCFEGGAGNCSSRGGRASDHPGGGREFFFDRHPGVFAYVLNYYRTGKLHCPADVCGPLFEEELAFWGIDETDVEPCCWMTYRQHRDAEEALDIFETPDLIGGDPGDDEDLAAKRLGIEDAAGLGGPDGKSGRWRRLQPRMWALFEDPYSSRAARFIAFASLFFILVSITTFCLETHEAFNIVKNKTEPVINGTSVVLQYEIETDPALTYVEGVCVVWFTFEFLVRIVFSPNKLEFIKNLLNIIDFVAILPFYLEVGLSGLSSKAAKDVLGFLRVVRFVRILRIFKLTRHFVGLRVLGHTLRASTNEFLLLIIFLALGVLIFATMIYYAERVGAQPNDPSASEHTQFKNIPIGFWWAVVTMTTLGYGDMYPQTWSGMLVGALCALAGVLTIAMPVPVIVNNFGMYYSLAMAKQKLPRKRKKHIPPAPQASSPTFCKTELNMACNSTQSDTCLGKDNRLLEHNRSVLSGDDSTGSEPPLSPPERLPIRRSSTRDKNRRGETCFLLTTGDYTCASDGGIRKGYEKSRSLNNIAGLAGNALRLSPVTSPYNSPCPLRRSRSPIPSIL", "assay": "Biological Example 1: hKv3.2 whole-cell currents, IonWorks Quattro planar array electrophysiology", "type": "cell-based", "conditions": "for Tauact mean: hKv3.2, -15 mV voltage step", "from_the_text": "The ability of the compounds of the invention to modulate the voltage-gated potassium channel subtypes Kv3.2 or Kv3.1 may be determined using the following assay. Analogous methods may be used to investigate the ability of the compounds of the invention to modulate other channel subtypes, including Kv3.3 and Kv3.4.\nTo assess compound effects on human Kv3.2 channels (hKv3.2), a stable cell line expressing hKv3.2 was created by transfecting Chinese Hamster Ovary (CHO)-K1 cells with a pClH5-hKv3.2 vector. Cells were cultured in DMEM/F12 medium supplemented by 10% Foetal Bovine Serum, lx non-essential amino acids (Invitrogen) and 500 ug/ml of Hygromycin-B (Invitrogen). Cells were grown and maintained at 37° C. in a humidified environment containing 5% CO2 in air.\nThe day of the experiment, cells were removed from the incubator and the culture medium removed. Cells were washed with 5 ml of Dulbecco's PBS (DPBS) calcium and magnesium free and detached by the addition of 3 ml Versene (Invitrogen, Italy) followed by a brief incubation at 37° C. for 5 minutes. The flask was tapped to dislodge cells and 10 ml of DPBS containing calcium and magnesium was added to prepare a cell suspension. The cell suspension was then placed into a 15 ml centrifuge tube and centrifuged for 2 min at 1200 rpm. After centrifugation, the supernatant was removed and the cell pellet re-suspended in 4 ml of DPBS containing calcium and magnesium using a 5 ml pipette to break up the pellet. Cell suspension volume was then corrected to give a cell concentration for the assay of approximately 3 million cells per ml.\nExperiments were conducted at room temperature using IonWorks Quattro™ planar array electrophysiology technology (Molecular Devices Corp.) with PatchPlate™ PPC. Stimulation protocols and data acquisition were carried out using a microcomputer (Dell Pentium 4). Planar electrode hole resistances (Rp) were determined by applying a 10 mV voltage step across each well. These measurements were performed before cell addition. […] Following this, amphotericin-B solution was added to the intracellular face of the electrode to achieve intracellular access. Cells were held at −70 mV. Leak subtraction was conducted in all experiments by applying 50 ms hyperpolarizing (10 mV) prepulses to evoke leak currents followed by a 20 ms period at the holding potential before test pulses. From the holding potential of −70 mV, a first test pulse to −15 mV was applied for 100 ms and following a further 100 ms at −70 mV, a second pulse to 40 mV was applied for 50 ms. Cells were then maintained for a further 100 ms at −100 mV and then a voltage ramp from −100 mV to 40 mV was applied over 200 ms. Test pulses protocol may be performed in the absence (pre-read) and presence (post-read) of the test compound. Pre- and post-reads may be separated by the compound addition followed by a 3 minute incubation.\nThe intracellular solution contained the following (in mM): K-gluconate 100, KCl 54, MgCl2 3.2, HEPES 5, adjusted to pH 7.3 with KOH. Amphotericin-B solution was prepared as […] stock solution in DMSO and diluted to a final working concentration of 0.1 mg/ml in intracellular solution.\nCompounds of the invention (or reference compounds such as N-cyclohexyl-N-[(7,8-dimethyl-2-oxo-1,2-dihydro-3-quinolinyl)methyl]-N′-phenylurea were dissolved in dimethylsulfoxide (DMSO) at a stock concentration of 10 mM. These solutions were further diluted with DMSO using a Biomek FX\nEach dilution (1 μL) was transferred to another compound plate and external solution containing 0.05% pluronic acid (66 μL) was added. 3.5 μL from each plate containing a compound of the invention was added and incubated with the cells during the lonWorks Quattro™ experiment. The final assay dilution was 200 and the final compound concentrations were in the range 50 μM to 50 nM."}, "[4]": {"assay": "Analysis of blood levels of Example 4 in study mice", "type": "in vivo", "conditions": "CD-1, whole blood, ip, mouse, 90 minutes after administration, n=3, mean [range], read-out: Blood concentration of Test Drug", "procedure": "Blood samples were collected from a subset of study mice (n=3) at the end of the behavioural measurement (90 minutes post-dose of test drug), and assayed using a method based on protein precipitation with acetonitrile followed by HPLC-MS/MS analysis with an optimized analytical method. Since the stability of the analyte in blood and brain was unknown, Calibration standards (CS) and Quality control samples (QC) were prepared on the day of dosing and stored together with study samples. Study samples, CS, QC and blanks were spiked with rolipram as internal standard (IS). Study samples were analyzed in discrete batches together with CS, QC and blank samples."}, "[5]": {"conditions": "compound 3.1 μM (concentration giving ~0.3 nA current at end of pulse)"}}, "note": "Entries after “also recorded” stand apart in the source; their conditions may differ. Read-outs that look alike come from different tables or passages of the source."}
{"smiles": "CC(N)Cc1ccccc1", "note": "(stereo not drawn) [Amphetamine, amphetamine, reference compound]", "values": [{"measurement": "Locomotor activity (beam crosses)", "setting": "[1]; amphetamine 2.0 mg/kg i.p. alone", "value": "16190 ± 2394", "unit": "beam crosses"}, {"measurement": "total locomotor activity", "setting": "[1]; amphetamine alone, 2 mg/kg i.p.", "value": "large and significant increase"}]}
{"smiles": "CN1CCN(C2=Nc3cc(Cl)ccc3Nc3ccccc32)CC1", "note": "[Clozapine, reference compound]", "values": [{"measurement": "Locomotor activity (beam crosses)", "setting": "[1]; AMPH 2 mg/kg i.p. + clozapine i.p. 30 min before (positive control), p<0.001 vs amphetamine alone", "value": "1546 ± 420", "unit": "beam crosses"}]}
{"smiles": "CC[C@H]1NC(=O)N(c2ccc(Oc3cccc4c3C3(CC3)CO4)nc2)C1=O", "note": "[RE9, reference compound]", "values": [{"measurement": "ability of the neurons to fire on each pulse (spike probability)", "setting": "[2]", "value": "reduces the ability of the neurons to fire; also recorded: unable to follow trains at the highest frequency"}, {"measurement": "Tauact mean", "setting": "[3]; compound 0.2 μM (concentration giving ~0.3 nA current at end of pulse)", "value": 50.1, "unit": "ms"}, {"measurement": "Tauact", "setting": "[3]; hKv3.2, each tested at a concentration that increased the Kv3.2 current to a similar level (~0.3 nA)", "value": "50.1 ± 7.5", "unit": "ms"}]}
{"smiles": "Cc1ccc(Oc2ncc(N3C(=O)NC(C)(C)C3=O)cn2)c2c1OCC21CC1", "note": "[Example 4, 5,5-dimethyl-3-[2-(7-methylspiro[2H-benzofuran-3,1′-cyclopropane]-4-yl)oxypyrimidin-5-yl]imidazolidine-2,4-dione]", "values": [{"measurement": "Locomotor activity (beam crosses)", "setting": "[1]; AMPH 2 mg/kg i.p. + Example 4 3 mg/kg i.p. 30 min before", "value": "10263 ± 2443", "unit": "beam crosses"}, {"measurement": "Locomotor activity (beam crosses)", "setting": "[1]; AMPH 2 mg/kg i.p. + Example 4 10 mg/kg i.p. 30 min before, p<0.05 vs amphetamine alone", "value": "9015 ± 1413", "unit": "beam crosses"}, {"measurement": "Locomotor activity (beam crosses)", "setting": "[1]; AMPH 2 mg/kg i.p. + Example 4 30 mg/kg i.p. 30 min before, p<0.001 vs amphetamine alone", "value": "4555 ± 922", "unit": "beam crosses"}, {"measurement": "concentration at 90 min", "setting": "[4]; Example 4 3 mg/kg i.p.", "value": 98, "unit": "ng/mL"}, {"measurement": "concentration at 90 min", "setting": "[4]; Example 4 10 mg/kg i.p.", "value": 244, "unit": "ng/mL"}, {"measurement": "concentration at 90 min", "setting": "[4]; Example 4 30 mg/kg i.p.", "value": 2140, "unit": "ng/mL"}]}
{"smiles": "CC[C@H]1NC(=O)N(c2ccc(Oc3ccc(C#N)c(OC(F)(F)F)c3)nc2)C1=O", "note": "[RE7, 4-({5-[(4R)-4-ethyl-2,5-dioxo-1-imidazolidinyl]-2-pyridinyl}oxy)-2-[(trifluoromethyl)oxy]benzonitrile, reference compound]", "values": [{"measurement": "Tauact mean", "setting": "[3]; [5]", "value": 10.4, "unit": "ms"}]}
{"smiles": "CC[C@@]1(C)NC(=O)N(c2ccc(Oc3ccc(C)c4c3C3(CC3)CO4)nc2)C1=O", "note": "[Example 9, (5R)-5-ethyl-5-methyl-3-[6-(7-methylspiro[2H-benzofuran-3,1′-cyclopropane]-4-yl)oxy-3-pyridyl]imidazolidine-2,4-dione]", "values": [{"measurement": "Tauact mean", "setting": "[3]; compound 0.8 μM (concentration giving ~0.3 nA current at end of pulse)", "value": 24.0, "unit": "ms"}]}
{"smiles": "CC[C@H]1NC(=O)N(c2ccc(Oc3ccc(C#N)c(OC(C)C)c3)nc2)C1=O", "note": "[RE8, 4-({5-[(4R)-4-ethyl-2,5-dioxo-1-imidazolidinyl]-2-pyridinyl}oxy)-2-[(1-methylethyl)oxy]benzonitrile, reference compound]", "values": [{"measurement": "Tauact mean", "setting": "[3]; [5]", "value": 9.7, "unit": "ms"}]}
